Reference: patent publication US10925854B2, “Methods and compositions for preventing or treating fatty liver, protecting liver function or ameliorating liver diseases caused by fatty liver or other associated disorders” (SINEW PHARMA INC., priority 2015, dated 2021)
Like-named read-outs stand apart in the source and are kept apart here.

Tests used:
[1] = system: HepG2 fatty liver cells (induced with oleic acid); assay: Reduction of TG content in oleic acid-induced HepG2 fatty liver cells; type: cell-based, human; settings: for inhibition at 1 µM: Homo sapiens, read-out: TG reduction rate
Method: The activity of the various compounds of the present invention in reduction of fat content was analyzed by using human hepatoma cell line Hep G2.
HepG2 cell lines (15×10^6 cells) were cultured in DMEM culture No. B, incubated in an incubator with 5% CO2 at 37° C. for 24 hours, cultured in DMEM culture No. C (serum-free medium) for 24 hours, and finally cultured in DMEM culture No. D (containing oleate/albumin complex) for another 48 hours to induce HepG2 cell lines to form fatty liver cells.
HepG2 cell lines were divided into six groups, including: (1) Blank: no treatment; (2) DMSO group: cells from Blank were treated with dimethyl sulfoxide (DMSO); (3) Control: induction with oleic acid to form fatty liver cells; (4) Vehicle group: fatty liver cells formed by induction with oleic acid were treated with DMSO; (5) Positive control: fatty liver cells were treated with silymarin; and (6) Test Group: fatty liver cells were treated with various compounds of the present invention.
After incubation for 72 hours, the treated cells from each group were successively washed twice with PBS, and then incubated with 0.5 ml of trypsin/EDTA for 3 minutes. Afterwards, the cells were scraped with 2 ml of PBS and then transferred to the centrifuge tube to be shattered by ultrasonic. 20 μl of the cell extracts was taken to determine the content of protein. TG determination was performed using commercially available combination of agents (Randox). The TG content obtained above was divided by the protein content to obtain a ratio, representing a relative TG content in the cells.
The equation for calculating reduction rate (%) of TG was as follows: [1−(TG content of Test Group−TG content of Blank)/(TG content of Oleic acid induction Group−TG content of Blank)]×100%.

[2] = system: B6 mice fed with high fat feed (fatty liver); assay: Liver antioxidant capacity (Gpx, GSH, Grd, SOD) in mice with induced fatty liver; type: in vivo; settings: fatty liver mice
Method: (§1) B6 mice recommended in the specification “Method for evaluating the liver protection and health care efficacies of health food” announced by the Department of Health were chosen for animal testing. More than four (4) mice were used in each group of the pre-test, while more than twelve (12) mice were used in each group of the confirmatory test. Male mice bred at 23±2° C. in an animal room with 55±15% relative humidity under normal light/dark cycle (7:00 AM-7:00 PM lights on/7:00 PM-7:00 AM lights off) and weighing 18-23 g were purchased from BioLASCO (Taipei) and housed at Laboratory Animal Center in National Defense Medical Center. The animal test was carried out according to the guideline for animal experiment of National Health Research Institutes. Mice were fed with normal feed at 3-5 g/day and unlimited supply of water for 1-2 weeks and investigated for health condition. The weight of mice was recorded once a week.
(§2) The tested animals were grouped randomly into Blank, High Fat Diet control (HFD), Positive Control (PS), and Test group. The animals of Blank were fed with normal feed. The animals of HFD were fed with high fat feed. The animals of PS were fed with high fat feed, and additionally fed with silymarin (5 mg/kg/day) by a tube. The animals of Test group were fed with high fat feed, and additionally force-fed with test compounds by a tube.
(§3) The animals of Blank were fed casually with normal feed for 12 weeks, while the animals of HFD, PS, and Test group were fed casually with high fat feed for 12 weeks. After 8 weeks of feeding, the animals of Blank and HFD were fed with deionized water by a tube once a day; the animals of PS were fed with silymarin by a tube once a day; and the animals of Test Group were fed with test compounds by a tube once a day for a duration of 4 or 8 weeks.
About 0.1 g of liver tissue was taken from the sacrificed animal and homogenized by centrifuge with a biomasher for 10 minutes. A 9-fold weight (w/w) of buffer (pH 7.4, 50 mmol/L Tris-HCl, 180 mmol/L KCl) was added to the homogenized tissue, which was then mixed well by a Vortex mixer for subsequent use. The resulting homogenization solution samples of liver tissue was used for the analysis of various members of liver antioxidant systems, including glutathione peroxidase (GPx), glutathione (GSH), glutathione reductase (Grd), and superoxide dismutase (SOD). Methods of related analysis can be found in the known literatures, for example, the draft of “Method for evaluating the liver protection and health care efficacies of health food” announced by the Ministry of Health and Welfare, Taiwan.

[3] = system: B6 mice fed with high fat feed (fatty liver); assay: Liver lipids (TG, TC in liver) in mice with induced fatty liver; type: in vivo
Method: as §1, §2, §3
In addition, abdominal fat and liver specimens were taken from the abdomens of sacrificed mice and weighted to compare the weight of fat and liver and obtain a ratio of liver weight to body weight. Two tissue blocks with a volume of approximately 1 cm^3 were cut from the largest right lobe of liver, fixed in 10% neutral formalin solution, and then embedded with paraffin for sectioning and H&E staining for histopathological observation. Moreover, the rest of the liver was frozen for preservation and detection of the contents of triglyceride and total cholesterol in the liver. Furthermore, the liver function of animals of each group were analyzed by Galactose Single Point Method, which was recognized and recommended for quantification of remaining liver function in clinical use by U.S. FDA and Ministry of Health and Welfare, Taiwan. At the end of the tests, 0.5 g of galactose (G.S.P.® 0.4 g/mL) per kg of animal was administered via intravenous. One hour after the administration, about 0.5 ml of whole blood was taken by using a filter paper to evaluate liver function of mice. The higher the value of GSP was, the worse the remaining liver function would be (FDA: “Guidance for Industry: Pharmacokinetics in Patients with Impaired. Hepatic Function—Study Design, Data Analysis and Impact on Dosing and. Labeling. 2003).

[4] = system: B6 mice fed with high fat feed (fatty liver); assay: Serum ALT and AST (liver dysfunction) in mice with induced fatty liver; type: in vivo
Method: as §1, §2, §3
Before testing and in the eighth (8th), twelfth (12th), and sixteenth (16th) week after testing, blood was collected from the cheek or the heart. At the end of testing, all mice were weighted and then sacrificed, and blood was collected from the cheek or the heart simultaneously. The blood specimens of mice was placed at room temperature for one hour to clot, and then the serum was separated by centrifugation in a refrigeration centrifuge at 15,700×g at 4° C. for 5 minutes. Afterwards, biochemical indices of liver function, including aspartate transaminase (AST), alanine aminotransferase (ALT), triglyceride (TG), total cholesterol (TCHO/TC), low-density lipoprotein cholesterol (LDL-C), and high-density lipoprotein cholesterol (HDL-C), were detected by the automatic blood biochemistry analyzer.

[5] = 72 h, tested substances 1.0 uM, fatty liver cells from HepG2

| Molecule | inhibition at 1 µM [1, 5] [%] | other results |
| --- | --- | --- |
| (−)-epicatechin-3-gallate | – | TG reduction rate ([1]; tested substances 1.0 uM, fatty liver cells from HepG2): 32.7 ± 4.33% |
| OCC(O)CO [glycerrin, glycerin] | 16.2 ± 4.25 | – |
| O=c1ccc2ccc(O)cc2o1 [umbelliferone] | 17.4 ± 2.57 | – |
| CC(C)[C@@H](C)/C=C/[C@@H](C)[C@H]1CC[C@H]2C3=CC=C4C[C@@H](O)CC[C@]4(C)[C@H]3CC[C@]12C [ergosterol] | 34.2 ± 3.69 | – |
| O=c1cc(-c2ccc(O)cc2)oc2cc(O)c([C@@H]3O[C@H](CO)[C@@H](O)[C@H](O)[C@H]3O)c(O)c12 [isovitexin] | 35.9 ± 3.35 | – |
| O=c1c(O)c(-c2ccc(O)cc2)oc2cc(O)cc(O)c12 [kaempferol] | 36.5 ± 4.78 | – |
| COc1ccc(-c2cc(=O)c3c(OC)c(OC)c(OC)cc3o2)cc1OC [sinensetin] | 37 ± 4.84 | – |
| C=CC(=C)CCC=C(C)C [β-myrcene] | 34 ± 11.2 | – |
| CC(Cc1ccc(O)c(O)c1)C(C)Cc1ccc(O)c(O)c1 (stereo not drawn) [nordihydroguaiaretic acid] | 15.9 ± 2.3 | – |
| O=C(O)CC(O)(CC(=O)O)C(=O)O [citric acid] | 2.55 ± 4.43 | – |
| COc1ccc(-c2coc3cc(O)ccc3c2=O)cc1 [formononetin] | 29.6 ± 1.44 | – |
| COc1ccc([C@@H]2CC(=O)c3c(O)cc(O)cc3O2)cc1O [hesperitin] | 16.1 ± 5.55 | effect on liver antioxidant activity (in words) [2]: can significantly enhance antioxidant activity; effect on TC in liver (in words) [3]: reduces TC in liver significantly; effect on TG in liver (in words) [3]: reduces TG in liver significantly; effect on ALT and AST values (in words) [4]: can significantly reduce ALT and AST values |
| O=c1c(O)c(-c2ccc(O)cc2O)oc2cc(O)cc(O)c12 [morin] | 25.8 ± 10.7 | – |
| COc1ccc(-c2cc(=O)c3c(O)cc(O[C@@H]4O[C@H](CO[C@@H]5O[C@@H](C)[C@H](O)[C@@H](O)[C@H]5O)[C@@H](O)[C@H](O)[C@H]4O)cc3o2)cc1O [diosmin] | 11.9 ± 3.73 | – |
| O=C(O)[C@H]1O[C@@H](Oc2cc3oc(-c4ccccc4)cc(=O)c3c(O)c2O)[C@H](O)[C@@H](O)[C@@H]1O [baicalin] | 9.21 ± 6.21 | – |
| CC1(C)[C@@H](O[C@H]2O[C@H](C(=O)O)[C@@H](O)[C@H](O)[C@H]2O[C@@H]2O[C@H](C(=O)O)[C@@H](O)[C@H](O)[C@H]2O)CC[C@]2(C)[C@H]3C(=O)C=C4[C@@H]5C[C@@](C)(C(=O)O)CC[C@]5(C)CC[C@@]4(C)[C@]3(C)CC[C@@H]12 [glycyrrhizin] | 10.6 ± 7.4 | – |
| OC[C@@H](O)[C@@H](O)[C@H](O)[C@@H](O)CO [sorbitol] | 20.1 ± 2.57 | – |
| O=c1c(O[C@@H]2O[C@H](CO)[C@H](O)[C@H](O)[C@H]2O)c(-c2ccc(O)c(O)c2)oc2cc(O)cc(O)c12 [hyperoside] | 30.5 ± 2.8 | – |
| O=c1cc(-c2ccccc2)oc2cc(O)c(O)c(O)c12 [baicalein] | 7.09 ± 10.9 | – |
| O=C(CCc1ccc(O)cc1)c1c(O)cc(O)cc1O[C@@H]1O[C@H](CO)[C@@H](O)[C@H](O)[C@H]1O [phloridzin] | 42.4 ± 6.05 | – |

| Molecule | inhibition at 1 µM [1, 5] [%] | other results |
| --- | --- | --- |
| C/C=C/C=C/C(=O)O [sorbic acid] | 2.03 ± 1.96 | – |
| O=c1c(O)c(-c2ccccc2)oc2cc(O)cc(O)c12 [galangin] | 28.1 ± 8.62 | – |
| OC[C@@H](O)[C@H](O)[C@@H](O)CO [xylitol] | 7.36 ± 6.34 | – |
| C[C@@H]1O[C@@H](O[C@H]2[C@H](Oc3cc(O)c4c(c3)O[C@H](c3ccc(O)cc3)CC4=O)O[C@H](CO)[C@@H](O)[C@@H]2O)[C@H](O)[C@H](O)[C@H]1O [naringin] | 12.7 ± 3.72 | – |
| C[C@H]1[C@H](C)CC[C@]2(C(=O)O)CC[C@]3(C)C(=CC[C@@H]4[C@@]5(C)CC[C@H](O)C(C)(C)[C@@H]5CC[C@]43C)[C@H]12 [ursolic Acid] | 35.9 ± 8.92 | – |
| O=c1c(-c2ccc(O)cc2)coc2cc(O)ccc12 [daidzein] | 42.3 ± 5.34 | – |
| COc1ccc([C@@H]2CC(=O)c3c(O)cc(O[C@@H]4O[C@H](CO)[C@@H](O)[C@H](O)[C@H]4O[C@@H]4O[C@@H](C)[C@H](O)[C@@H](O)[C@H]4O)cc3O2)cc1 [poncirin] | 38.1 ± 7.22 | – |
| O=c1c(-c2ccc(O)cc2)coc2c([C@@H]3O[C@H](CO)[C@@H](O)[C@H](O)[C@H]3O)c(O)ccc12 [puerarin] | 49.9 ± 7.73 | effect on liver antioxidant activity (in words) [2]: can significantly enhance antioxidant activity; effect on TG in liver (in words) [3]: reduces TG in liver significantly; effect on ALT and AST values (in words) [4]: can significantly reduce ALT and AST values |
| O=C1NS(=O)(=O)c2ccccc21 [saccharin] | 17.5 ± 6.96 | effect on TC in liver (in words) [3]: reduces TC in liver significantly; effect on ALT and AST values (in words) [4]: can significantly reduce ALT and AST values |
| COc1cc(C2Oc3cc([C@H]4Oc5cc(O)cc(O)c5C(=O)[C@@H]4O)ccc3OC2CO)ccc1O (stereo partly drawn) [silybin] | 30.3 ± 3.24 | – |
| CC/C=C\C/C=C\C/C=C\C/C=C\C/C=C\CCCC(=O)O [eicosapentaenoic acid (EPA), eicosapentaenoic acid] | 26.1 ± 6.14 | – |
| O=C(O)/C=C/c1ccccc1 [trans-Cinnamic Acid] | 15.8 ± 0.82 | – |
| O=C(O)c1ccc(O)c(O)c1 [protocatechuic acid] | – | inhibition at 1 µM ([1]; HepG2, 72 h): 18.6 ± 7.6% |
| C[C@@H]1O[C@@H](Oc2c(-c3ccc(O)c(O)c3)oc3cc(O)cc(O)c3c2=O)[C@H](O)[C@H](O)[C@H]1O [quercitrin] | – | inhibition at 1 µM ([1]; HepG2, 72 h): 9.15 ± 9.24% |
| O=c1cc(-c2ccc(O)c(O)c2)oc2cc(O)cc(O)c12 [luteolin] | 6.95 ± 15.2 | – |
| C=C[C@H]1[C@H](O[C@@H]2O[C@H](CO)[C@@H](O)[C@H](O)[C@H]2O)OC=C2C(=O)OCC[C@]21O [swrtiamarin, swertiamarin] | 6.72 ± 11 | – |
| CCCCCCCCCCCCCC(=O)OCC [myristic acid ethyl ester] | 28.9 ± 3.91 | – |
| CCCCCCCCCCCCOS(=O)(=O)[O-].[Na+] [sodium lauryl sulfate] | 38.7 ± 4.65 | – |
| O=C1c2c(O)cc(O)cc2O[C@H](c2ccc(O)c(O)c2)[C@H]1O [(+)-taxifolin] | 17.9 ± 8.35 | – |
